Results published in patent US12486246B2, “Replication protein A (RPA)-DNA interaction inhibitors” (THE TRUSTEES OF INDIANA UNIVERSITY, priority 2019, dated 2025).
Converted amounts (≈) assume the structure as drawn.

Tests used:
[1] = molecular target: T1, full length heterotrimeric human RPA (Homo sapiens, UniProt P27694); experiment: Electrophoretic mobility shift assay (EMSA), binding of full length human RPA to ssDNA; conditions: full length human RPA binding to DNA, mean ± SD of minimum triplicate experiments
T1 construct: Full length, heterotrimeric human RPA (fl-RPA) and DBD-A/B constructs were expressed and purified; made in house
T1 sequence (P27694 whole entry): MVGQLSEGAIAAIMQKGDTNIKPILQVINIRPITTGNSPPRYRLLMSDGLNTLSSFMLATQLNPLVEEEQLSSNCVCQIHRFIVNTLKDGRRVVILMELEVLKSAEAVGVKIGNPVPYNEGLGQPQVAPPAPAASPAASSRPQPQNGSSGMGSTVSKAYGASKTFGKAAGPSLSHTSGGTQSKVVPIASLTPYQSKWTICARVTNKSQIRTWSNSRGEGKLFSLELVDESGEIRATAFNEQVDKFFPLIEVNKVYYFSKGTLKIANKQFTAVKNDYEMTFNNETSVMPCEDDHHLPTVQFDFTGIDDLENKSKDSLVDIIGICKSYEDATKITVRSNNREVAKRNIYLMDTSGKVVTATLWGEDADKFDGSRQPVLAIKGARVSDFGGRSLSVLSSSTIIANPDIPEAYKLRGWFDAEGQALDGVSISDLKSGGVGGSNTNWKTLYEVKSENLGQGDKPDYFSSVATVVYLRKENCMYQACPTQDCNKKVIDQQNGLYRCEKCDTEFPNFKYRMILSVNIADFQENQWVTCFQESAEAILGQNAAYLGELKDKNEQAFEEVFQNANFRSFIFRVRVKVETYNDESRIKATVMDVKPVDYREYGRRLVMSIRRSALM
T1 sequence (P15927 whole entry partner): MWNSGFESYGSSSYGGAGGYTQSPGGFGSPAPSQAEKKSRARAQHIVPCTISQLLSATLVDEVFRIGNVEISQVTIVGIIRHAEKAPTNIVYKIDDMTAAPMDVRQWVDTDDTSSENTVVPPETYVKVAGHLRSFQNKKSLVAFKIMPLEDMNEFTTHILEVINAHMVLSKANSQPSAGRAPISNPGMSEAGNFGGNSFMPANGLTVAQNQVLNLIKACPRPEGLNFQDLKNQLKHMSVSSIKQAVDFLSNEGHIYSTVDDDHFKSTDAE
T1 sequence (P35244 whole entry partner): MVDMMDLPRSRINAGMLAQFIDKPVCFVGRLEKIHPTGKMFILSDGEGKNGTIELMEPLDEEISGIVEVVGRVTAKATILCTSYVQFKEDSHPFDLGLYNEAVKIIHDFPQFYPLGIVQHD
Method: (§1) Full length, heterotrimeric human RPA (fl-RPA) and DBD-A/B constructs were expressed and purified according to previously described protocol. The DBD-A/B construct was expressed as a His6-RPA181-422 fusion protein. E. coli BL21 (DE3) cells in log growth were induced for 3 h with 0.5 mM IPTG at 37° C. The cells were lysed via sonication in buffer containing 20 mM Tris pH 7.5, 500 mM NaCl, 10 mM b-mercaptoethanol, supplemented with 25 μg/mL lysozyme, 1 μg/mL leupeptin, 1 μg/mL pepstatin and 0.5 mM PMSF. The lysate was applied to a 20 mL phosphocellulose column equilibrated in the same buffer and the flow-through material collected, brought to 5 mM Imidazole and loaded onto a 2 ml Ni-NTA column. The column was washed and proteins eluted on with a gradient from 50 mM to 500 mM imidazole. Fractions were assessed by EMSA and SDS-PAGE and DBD-A/B containing fraction were pool, dialyzed against buffer containing 50 mM HEPES pH 7.0, 500 mM NaCl and 1 mM DTT and stored at −80° C.
(§2) EMSAs were carried out using previously described procedure with the following modification. EMSA reactions (20 μL) were performed with 50 nM fl-RPA and 2.5 nM 5′ [^32P]-labeled 34-base DNA in buffer containing 20 mM HEPES (pH 7.8), 1 mM DTT, 0.001% NP-40, 50 mM NaCl. Chemical compounds were suspended in DMSO and DMSO concentration in the reaction mixture was kept constant at 2% or below 5%. RPA was incubated with inhibitor or DMSO control in reaction buffer for 30 min before the addition of DNA. Reactions were incubated for 5 min at room temperature and products separated via 6% native polyacrylamide gel electrophoresis. The bound and unbound fractions were then quantified by phosphor-imager analysis using ImageQuant software (Molecular Dynamics, CA) and IC50 values calculated by non-linear regression using SigmPlot (Sysat). For EMSA reactions with RPA DBD-A/B, 150 nM DBD-A/B was used, and electrophoresis was performed at 4° C. All other conditions were identical to those described for the full-length RPA.
Purified full length heterotrimeric human RPA protein was used to screen a series of analogs in an electrophoretic mobility shift assay (EMSA) measuring direct binding to a ss-DNA substrate. Quantification of the EMSA data and additional concentration dependent analysis to measure IC50 values of newly synthesized analogs provided potential insight into the structure-activity relationships (Table 1 and 2). […] Fluorine and trifluoromethyl substituents were included in pyridinyl compounds 28-29.

[2] = Aqueous solubility as a function of pH; type: physicochemical; conditions: thermodynamic from solid
Method: Aqueous solubility was determined by suspending compound in un-buffered water with stirring. Insoluble material was removed by sedimentation or filtration and soluble compound quantified by absorbance spectroscopy and LC/MS. pH dependence was determined by suspending compound in 10 mM citrate buffer at pH 4.0 or 10 mM phosphate […] as described above in the description.
The morpholine ring is commonly introduced into solvent exposed regions as a privileged solubilizing group to improve solubility or pharmacokinetic properties including metabolic stability of a prospective drug scaffold which is exemplified by many FDA approved drugs. Modifications on Ring A had less of an effect than the morpholino modifications at the alkyl carboxylic acid side chain. To determine the effect of pH on solubility, we prepared solution at 1 mM in citrate buffer at pH 4, phosphate buffer at pH 7 and carbonate buffer at pH 9.5.

H460 NSCLC cells [3] = experiment: Cellular uptake measurement by LC/MS; type: in vitro ADME; conditions: 20 μM, 4 hours, 37° C.
Method: All cells were grown as monolayers at 37° C. with 5% CO2 in media containing 20% fetal bovine serum and 0.1% pen/strep. Cellular uptake was assessed in both H460 NSCLC and SKGT4 esophageal adenocarcinoma cells. Briefly, cells were plated in 35 mm dishes at 1×10^6 cells well and incubated overnight. Compounds were added to the medium at a concentration of 20 μM incubation continued for 4 hours. Media was removed and cells washed 3× with PBS. 1 mL of methanol was added per well and cells agitated overnight at 4° C. The methanol was collected, wells washed with an additional 1 ml of methanol and pooled. The compounds were dried under vacuum, suspended in methanol and quantified by LC/MS.
Cellular uptake of our compounds in H460 NSCLC cells was analyzed (FIG. 3B). Initially, compounds were first solubilized in 100% DMSO then diluted in aqueous buffer of media to achieve the desired concentrations, the final DMSO concentration was 1% or less in all experiments. Cells were treated with a fixed concentration (20 μM) for 4 hours at 37° C. The intracellular drug concentrations were determined following extraction with ice cold MeOH and analysis via LC and LC/MS. […] Similar uptake data was also obtained in the SKGT4 esophageal adenocarcinoma cell line.

H460 NSCLC cells [4] = experiment: Combination index (Chou-Talalay), CCK-8 assay; type: cell-based; conditions: CI <1.0 = synergy
Method: (§3) Cell survival was determined by CCK-8 viability assay and/or clonogenic survival assay in 96 well plates or 24 well plates, respectively and combination index (CI) analysis of drug-drug interactions determined by Chou-Talalay analysis as we have previously described. • 1) CCK-8 metabolic assay: Cells were plated (2500 cells/well) in 96-well plate and allowed to grow for at least 18 hours in at 37° C. in the presence of 5% CO2 before treatment with inhibitor for 48 hours. CCK-8 solution (Dojindo) was added to 10% of the total media volume and after 1-4 hours of incubation absorbance at 450 nm was determined using BioTek® Synergy™ H1 hybrid multi-mode microplate reader • 2) Clonogenic survival assay: Cells were plated in a 24 well (20,000 cells/well) plate, incubated for at least 18 hours and then treated with inhibitor. After 48 hours of treatment, the cells are re-plated in 10 cm dishes (500 cells/dish) and incubated for 8-10 days to allow colony formation. Plates are washed with PBS, fixed with glutaraldehyde and stained with crystal violet. Images of the stained colonies were captured with a Fuji LAS-3000 CCD system then counted using OpenCFU software. Viability is determined as a percent of vehicle controls and plotted versus drug concentration. • 3) Assessment of synergy via combination index (CI): In the combination index studies, cells (H460 or SKGT4) were treated with RPA inhibitor and Pt/etoposide/bleomycin/taxol/DDR inhibitor alone as well as the combination of both—the inhibitor and the DNA damaging chemotherapeutic agent/DDR inhibitor. The range of treatment was dependent on the IC50 of each inhibitor/drug. If the IC50 was X, then the cells were treated at a range of 0.04× to 5× concentration in a CCK-8 metabolic assay. The kill curves from both the single agent treatments as well as the combination treatment were used in a Chou-Talalay based method to determine the combination index (CI) at different fractions of cells affected.^40 A CI>1.0 indicates antagonism between the two agents, while a CI<1.0 indicates synergy.
Inhibiting RPA can act synergistically with DNA damaging therapeutics including cisplatin and etoposide (FIG. 4C). In these studies, we used the Chou-Talalay method, which provides a combination index (CI) that quantifies synergistic activity for each drug combination. […] The synergistic activity of compounds described herein with DNA damaging agents may be explained by RPA's role in the DNA damage response and signaling.

[5] = molecular target: T2, RPA DBD-A/B construct (His6-RPA181-422 of RPA70) (Homo sapiens, UniProt P27694); experiment: EMSA, binding of RPA DBD-A/B construct to DNA; conditions: mean ± SD, read-out: RPAA/B IC50
T2 construct: The DBD-A/B construct was expressed as a His6-RPA181-422 fusion protein; His6 (N); made in house; host or cells: E. coli BL21 (DE3)
T2 sequence (P27694 181-422): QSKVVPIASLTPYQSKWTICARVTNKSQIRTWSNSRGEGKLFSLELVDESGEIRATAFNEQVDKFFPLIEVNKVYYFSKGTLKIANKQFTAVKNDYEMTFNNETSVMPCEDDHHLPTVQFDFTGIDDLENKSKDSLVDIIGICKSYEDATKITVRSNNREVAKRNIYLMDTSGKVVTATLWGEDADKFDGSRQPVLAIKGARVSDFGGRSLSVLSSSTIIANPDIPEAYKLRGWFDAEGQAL
Method: as §1, §2
These domains are compact modular domains populated with hydrophobic and basic DNA binding amino acid residues and have great potential to influence binding of the compounds to the RPA70 subunit. RPA DBD-A/B construct was purified via Ni-affinity chromatography. The activity of compounds 23-27 was evaluated on purified DBD-A/B construct using EMSA.

[6] = test system: sonicated salmon sperm DNA; experiment: Fluorescent intercalator displacement (FID) assay, SYBR-Green; type: binding; conditions: 25 mM MOPS pH 6.5
Method: The analysis of compound interactions with DNA was determined by inhibition of SYBR-Green intercalation into DNA as we have previously described. Briefly, reactions were performed in 25 mM MOPS (pH 6.5) containing sonicated salmon sperm DNA (8.29 ng/μL), SYBR-Green, and the indicated concentrations of RPA inhibitors. Reactions were conducted in black 96-well plates. Doxorubicin, a known noncovalent DNA binding chemotherapeutic, was used as a positive control. Fluorescence was measured using a BioTek® Synergy™ H1 hybrid multi-mode microplate reader with an excitation wavelength of 485 nm, emission wavelength of 528 nm, and a read height of 7 mm. Data were collected using BioTek® Gen5™ reader software. Reactions were incubated a maximum of 5 min before measurements were collected.
In order to probe the potential role of DNA intercalation as a mechanism for RPA inhibition, compounds 19, 23, 26, 27, 43 and 45 were analyzed using FID assay along with doxorubicin (Dox) as a positive control. […] In addition, direct binding of 9 derivatives to the target protein was assessed using a differential scan fluorimetry (DSF) assay. This assay assesses the melting profile of a protein at increasing temperatures via fluorescent dye binding. The direct interaction of a small molecule to the target protein can either increase or decrease the melting temperature (Tm) of the target depending on the specific protein and their interactions. […] Heparin sulfate, a known RPA interacting molecule often used in the purification of the protein was used as a control. […] (data not shown). […] (FIG. 1B).

H460 NSCLC cells [7] = experiment: Cell survival, CCK-8 metabolic assay, single agent; type: cell-based
Method: as §3, with “After 48 hours of treatment, the cells are re-plated in 10 cm dishes (500 cells/dish) and incubated for 8-10 days to allow colony formation. Plates are washed with PBS, fixed with glutaraldehyde and stained with crystal violet.” left out, “The range of treatment was dependent on the IC50 of each inhibitor/drug. If the IC50 was X, then the cells were treated at a range of 0.04× to 5× concentration in a CCK-8 metabolic assay. The kill curves from both the single agent treatments as well as the combination treatment were used in a Chou-Talalay based method to determine the combination index (CI) at different fractions of cells affected.^40 A CI>1.0 indicates antagonism between the two agents, while a CI<1.0 indicates synergy.” left out

IC50 [1]	solubility ([2]; aqueous buffer at pH 9.5, pH 9.5, aqueous buffer)	solubility ([2]; aqueous buffer, pH 4, citrate buffer)	solubility ([2]; aqueous buffer, pH 7, phosphate buffer)	cellular uptake (in words) (H460 NSCLC cells [3])	IC50 [5]	DNA binding activity (displacement of SYBR-Green intercalator) [6]	SMILES	synergy (combination index) with DNA damaging therapeutics cisplatin and etoposide (H460 NSCLC cells [4])	cellular anticancer activity compared to compound 9 (H460 NSCLC cells [7])
15.3 ± 1.42 µM	112.5 ± 0.74 µM (≈ 66.6 µg/mL)	0.76 ± 0.35 µM (≈ 0.45 µg/mL)	3.31 ± 0.36 µM (≈ 1.96 µg/mL)	relatively poor uptake	–	–	CCOc1ccc2cc(C3CC(c4ccc(I)cc4)=NN3C(=O)CCCC(=O)O)c(Cl)nc2c1 (centres unmarked) [Compound 9, 5-(5-(2-Chloro-7-ethoxyquinolin-3-yl)-3-(4-iodophenyl)-4,5-dihydro-1H-pyrazol-1-yl)-5-oxopentanoic acid]	showed synergy but not as robust of activity as compound 8	–
1.61 ± 0.04 µM	–	–	–	increased uptake	11.7 ± 0.3 µM	No significant DNA binding activity	CCOc1ccc2cc(C3CC(c4ccc(-c5ccc(Cl)nc5)cc4)=NN3C(=O)CCCC(=O)O)c(Cl)nc2c1 (centres unmarked) [Compound 26, 5-(5-(2-Chloro-7-ethoxyquinolin-3-yl)-3-(4-(6-chloropyridin-3-yl)phenyl)-4,5-dihydro-1H-pyrazol-1-yl)-5-oxopentanoic acid]	–	increase in cellular anticancer activity
